{"source": "patent US20140205582A1", "about": "“MEGAKARYOCYTE PROGENITOR CELLS FOR PRODUCTION OF PLATELETS” (CELLERANT THERAPEUTICS, INC., priority 2011, published 2014)", "tested_on": "human CD34+ cells", "test": "Expansion of CD34+ cells into MKPs in serum-free culture", "type": "cell-based", "details": "60 ng/ml IL-9 with TPO mimetic and IL-1, 8 days, 3 donors", "excerpt": "Isolation of human CD34^+ cells. G-CSF mobilized peripheral blood was harvested from healthy donors via leukapheresis (see, e.g., Kawamoto et al. (2009) Stem Cells 27:2857). CD34+ cells were positively selected using magnetic beads (Dynal, Lake Success, N.Y.) linked to anti-CD34 monoclonal antibody on an Isolex Device (Baxter, Deerfield, Ill.). […] Aliquots of 15-20×10^6 cells/ml were cryopreserved until use.\nExpansion of CD34^+ cells. CD34^+ cells from donors were thawed, pooled as indicated, and seeded at 5×10^5 cells/ml in serum-free X-vivo 15 medium (Lonza, Walkersville, Md.) supplemented with IX GlutaMAX (Invitrogen, Carlsbad, Calif.). Cytokines were added as follows. […] Cultures were incubated at 37° C. in a humidified atmosphere containing 5% carbon dioxide. Viable cells were counted daily and cell concentration was readjusted to about 5×10^5 cells/ml by the addition of fresh medium with cytokines.\nAnalysis of MKPs. Cell surface marker expression was analyzed by flow cytometry using CD15b, CD33, CD34, CD41, CD42a, CD90, and CD184 antibodies. Prior to antibody staining, cells were washed with HBSS containing 2% BSA and blocked with rat and mouse IgG (SouthernBiotech, Birmingham, AL) for 10 minutes at 4° C. […]", "note": "Entries after “also recorded” stand apart in the source; their conditions may differ."}
{"substance": "IL-9: interleukin-9 cytokine, also known as megakaryoblast growth factor", "values": [{"measurement": "effect on number of MKPs", "result": "increased the number of MKPs from all 3 donors; also recorded: increases the size of all populations"}]}
